Experimental data as given in patent publication EP0806480A2, “Frenolicin gene cluster” (F. HOFFMANN-LA ROCHE AG, priority 1996, dated 1997).

test system: Streptomyces and other bacteria; test: Toxicity of frenolicins to bacteria (comparative statement, no method described); type: cell-based; conditions: relative ranking among the frenolicins; qualitative only

| Compound | toxic to Streptomyces and other bacteria |
| --- | --- |
| CCC[C@H]1O[C@H](CC(=O)O)CC2=C1C(=O)c1c(O)cccc1C2=O [deoxyfrenolicin] | less toxic |
| frenolicin B [reference compound] | most toxic |
| frenolicin epoxide | even less so |
